Structures are written as SMILES.

Among the data in patent US11236088B2, “Heterocyclic compounds and their application in medicine” (KIND PHARMACEUTICAL, priority 2017, dated 2022) are IC50 values, retold here.

This assay concerns MCF-7 cells. In words: Inhibitory effect on the growth of MCF-7 cells (CellTiter-Glo, 10 days). It is filed as cell-based. As to conditions: Homo sapiens, MCF7, 240 h, 10 days incubation, CellTiter-Glo chemiluminescence. The procedure: Assay 2: Inhibitory effect of compounds of the present invention on the growth of MCF-7 cells by a cell drug inhibition experiment
1. Experimental Materials
1) Reagents: DMEM high glucose medium (Lonza #12-604F), FBS (BI #04-00F1ACS), antibiotics (Thermofisher #15070063), bovine insulin (Western reagent #11070-73-8), trypsin (Thermofisher #25200-056), CellTiter-Glo reagent (Promega #G7571)
2) Instruments: American MD-M5 microplate reader 5;
2. Experimental Procedures:
1) 100 μl of MCF-7 cells was added to a medium in a white opaque 96-well plate at a density of 5000 cells/ml in which the medium is DMEM high-glucose medium supplemented with 10% FBS. The cells were cultured in a 5% CO2 cell incubator at 37° C. for 24 hours.
2) Different concentrations of corresponding compounds were added to the 96-well plate for incubating MCF-7 cells. The cells were incubated for 10 days in a 5% CO2 cell incubator.
3) To each well of MCF-7 cells, 100 μl of CellTiter-Glo reagent was added and then set aside at room temperature for 10 minutes. The chemiluminescence signal was read using an MD-M5 microplate reader, and the data was processed using GraphPad Prism to calculate IC50 value.
On the technique in general: Cellular ATP, detected with luciferase, serves as a proxy for viable cell number.
`CCCCCN1CC(Nc2cc(F)c([C@@H]3c4ccc5[nH]ncc5c4CN(C)[C@H]3CC(C)C)c(F)c2)C1` [Example 9, N-(3,5-difluoro-4-((6S, 7S)-7-isobutyl-8-methyl-6,7,8,9-tetrahydro-3H-pyrazolo [3,4-h]isoquinolin-6-yl)phenyl)-1-pentylazetidin-3-amine] displayed an IC50 of more than 1000 nM. For `CC(C)C[C@H]1[C@H](c2c(F)cc(OC3CN(CCCF)C3)cc2F)c2ccc3[nH]ncc3c2CN1C` [Example 15, (6S, 7S)-6-(2,6-difluoro-4-((1-(3-fluoropropyl)azetidin-3-yl)oxy)phenyl)-7-isobutyl-8-methyl-6,7,8,9-tetrahydro-3H-pyrazolo [3,4-h]isoquinoline] the value was not above 1 nM. On to `CC(C)CN1CC(Oc2cc(F)c([C@@H]3c4ccc5[nH]ncc5c4CN(C)[C@H]3CC3CC3)c(F)c2)C1` [Example 22, (6S, 7S)-7-cyclopropylmethyl-6-(2,6-difluoro-4-((1-isobutylazetidin-3-yl)oxy)phenyl)-8-methyl-6,7,8,9-tetrahydro-3H-pyrazolo [3,4-h]isoquinoline], for which the IC50 was more than 1000 nM. For `CCCCN1CC(Nc2cc(F)c([C@@H]3c4ccc5[nH]ncc5c4CN(C)[C@H]3CC(C)C)c(F)c2)C1` [Example 7, 1-butyl-N-(3,5-difluoro-4-((6S, 7S)-7-isobutyl-8-methyl-6,7,8,9-tetrahydro-3H-pyrazolo [3,4-h]isoquinolin-6-yl)phenyl) azetidin-3-amine], the IC50 was more than 1000 nM. For `CC(C)C[C@H]1[C@H](c2c(F)cc(OC3CN(CC(C)C)C3)cc2F)c2ccc3[nH]ncc3c2CN1C` [Example 17, (6S, 7S)-6-(2,6-difluoro-4-((1-isobutylazetidin-3-yl)oxy)phenyl)-7-isobutyl-8-methyl-6,7,8,9-tetrahydro-3H-pyrazolo [3,4-h]isoquinoline] the value was 1 to 10 nM; for `CCCN1CC(Sc2cc(F)c([C@@H]3c4ccc5[nH]ncc5c4CN(C)[C@H]3CC3CC3)c(F)c2)C1` [Example 26, (6S, 7S)-7-cyclopropylmethyl-6-(2,6-difluoro-4-((1-propylazetidin-3-yl)thio)phenyl)-8-methyl-6,7,8,9-tetrahydro-3H-pyrazolo [3,4-h]isoquinoline], 10 to 1000 nM; for `CCC(=O)N1CC(Oc2cc(F)c([C@@H]3c4ccc5[nH]ncc5c4CN(C)[C@H]3CC(C)C)c(F)c2)C1` [Example 32, 1-(3-(3,5-difluoro-4-((6S, 7S)-7-isobutyl-8-methyl-6,7,8,9-tetrahydro-3H-pyrazolo [3,4-h]isoquinolin-6-yl)phenoxy)azetidin-1-yl) propan-1-one], not above 1 nM. For `CCCN1CC(Nc2cc(F)c([C@@H]3c4ccc5[nH]ncc5c4CN(C)[C@H]3CC(C)C)c(F)c2)C1` [Example 6, N-(3,5-difluoro-4-((6S, 7S)-7-isobutyl-8-methyl-6,7,8,9-tetrahydro-3H-pyrazolo [3,4-h]isoquinolin-6-yl)phenyl)-1-propylazetidin-3-amine] the value was more than 1000 nM; for `CC(C)C[C@H]1[C@H](c2c(F)cc(NC3CN(CCC(F)(F)F)C3)cc2F)c2ccc3[nH]ncc3c2CN1C` [Example 4, N-(3,5-difluoro-4-((6S, 7S)-7-isobutyl-8-methyl-6,7,8,9-tetrahydro-3H-pyrazolo [3,4-h]isoquinolin-6-yl)phenyl)-1-(3,3,3-trifluoropropyl) azetidin-3-amine], more than 1000 nM; for `CC(C)C[C@H]1[C@H](c2c(F)cc(SC3CN(CCCF)C3)cc2F)c2ccc3[nH]ncc3c2CN1C` [Example 10, (6S, 7S)-6-(2,6-difluoro-4-((1-(3-fluoropropyl)azetidin-3-yl)thio)phenyl)-7-isobutyl-8-methyl-6,7,8,9-tetrahydro-3H-pyrazolo [3,4-h]isoquinoline], not above 1 nM.

With `CC(C)CN1CC(Sc2cc(F)c([C@@H]3c4ccc5[nH]ncc5c4CN(C)[C@H]3CC3CC3)c(F)c2)C1` [Example 28, (6S, 7S)-6-(4-((1-isobutylazetidin-3-yl)thio)-2,6-difluorophenyl)-7-cyclopropylmethyl-8-methyl-6,7,8,9-tetrahydro-3H-pyrazolo [3,4-h]isoquinoline], the IC50 is more than 1000 nM.

`CCCCN1CC(Sc2cc(F)c([C@@H]3c4ccc5[nH]ncc5c4CN(C)[C@H]3CC(C)C)c(F)c2)C1` [Example 12, (6S, 7S)-6-(4-((1-butylazetidin-3-yl)thio)-2,6-difluorophenyl)-7-isobutyl-8-methyl-6,7,8,9-tetrahydro-3H-pyrazolo [3,4-h]isoquinoline] displayed an IC50 of 10 to 1000 nM. The compound `CCCCN1CC(Oc2cc(F)c([C@@H]3c4ccc5[nH]ncc5c4CN(C)[C@H]3CC3CC3)c(F)c2)C1` [Example 23, (6S, 7S)-6-(4-((1-butylazetidin-3-yl)oxy)-2,6-difluorophenyl)-7-cyclopropylmethyl-8-methyl-6,7,8,9-tetrahydro-3H-pyrazolo [3,4-h]isoquinoline] registered a 50% inhibitory concentration (IC50) of more than 1000 nM.

For `CCCCN1CC(Oc2cc(F)c([C@@H]3c4ccc5[nH]ncc5c4CN(C)[C@H]3CC(C)C)c(F)c2)C1` [Example 18], the IC50 was more than 1000 nM. `CN1Cc2c(ccc3[nH]ncc23)[C@@H](c2c(F)cc(OC3CN(CCCF)C3)cc2F)[C@@H]1CC1CC1` [Example 20, (6S, 7S)-7-(cyclopropylmethyl)-6-(2,6-difluoro-4-((1-(3-fluoropropyl)azetidin-3-yl)oxy)phenyl)-8-methyl-6,7,8,9-tetrahydro-3H-pyrazolo [3,4-h]isoquinoline]: the IC50 was more than 1000 nM. For `CCCN1CC(Sc2cc(F)c([C@@H]3c4ccc5[nH]ncc5c4CN(C)[C@H]3CC(C)C)c(F)c2)C1` [Example 11] the value was not above 1 nM; for `CC(C)C[C@H]1[C@H](c2c(F)cc(OC3CN(C(=O)C(C)C)C3)cc2F)c2ccc3[nH]ncc3c2CN1C` [Example 34, 1-(3-(3,5-difluoro-4-((6S, 7S)-7-isobutyl-8-methyl-6,7,8,9-tetrahydro-3H-pyrazolo [3,4-h]isoquinolin-6-yl)phenoxy)azetidin-1-yl)-2-methylpropan-1-one], 1 to 10 nM. For `CC(C)C[C@H]1[C@H](c2c(F)cc(NC3CN(CC(F)CF)C3)cc2F)c2ccc3[nH]ncc3c2CN1C` (stereo partly drawn) [Example 3, N-(3,5-difluoro-4-((6S, 7S)-7-isobutyl-8-methyl-6,7,8,9-tetrahydro-3H-pyrazolo [3,4-h]isoquinolin-6-yl)phenyl)-1-(2,3-difluoropropyl) azetidin-3-amine] the value was more than 1000 nM. For `CC(=O)N1CC(Oc2cc(F)c([C@@H]3c4ccc5[nH]ncc5c4CN(C)[C@H]3CC(C)C)c(F)c2)C1` [Example 31, 1-(3-(3,5-difluoro-4-((6S, 7S)-7-isobutyl-8-methyl-6,7,8,9-tetrahydro-3H-pyrazolo [3,4-h]isoquinolin-6-yl)phenoxy)azetidin-1-yl) ethan-1-one] the value was not above 1 nM; for `CCCCCN1CC(Sc2cc(F)c([C@@H]3c4ccc5[nH]ncc5c4CN(C)[C@H]3CC3CC3)c(F)c2)C1` [Example 29, (6S, 7S)-7-cyclopropylmethyl-6-(2,6-difluoro-4-((1-pentylazetidin-3-yl)thio)phenyl)-8-methyl-6,7,8,9-tetrahydro-3H-pyrazolo [3,4-h]isoquinoline], more than 1000 nM. For `CC(C)C[C@H]1[C@H](c2ccc(NC3CN(CCCF)C3)cc2)c2ccc3[nH]ncc3c2CN1C` [Example 1, 1-(3-fluoropropyl)-N-(4-((6R, 7S)-7-isobutyl-8-methyl-6,7,8,9-tetrahydro-3H-pyrazolo [3,4-h]isoquinolin-6-yl)phenyl)azetidin-3-amine], the concentration for half-maximal inhibition (IC50) was 1 to 10 nM. For `CCCN1CC(Oc2cc(F)c([C@@H]3c4ccc5[nH]ncc5c4CN(C)[C@H]3CC(C)C)c(F)c2)C1` [Example 16, (6S, 7S)-6-(2,6-difluoro-4-((1-propylazetidin-3-yl)oxy)phenyl)-7-isobutyl-8-methyl-6,7,8,9-tetrahydro-3H-pyrazolo [3,4-h]isoquinoline] the value was not above 1 nM.

`CCCCN1CC(Sc2cc(F)c([C@@H]3c4ccc5[nH]ncc5c4CN(C)[C@H]3CC3CC3)c(F)c2)C1` [Example 27, (6S, 7S)-6-(4-((1-butylazetidin-3-yl)thio)-2,6-difluorophenyl)-7-cyclopropylmethyl-8-methyl-6,7,8,9-tetrahydro-3H-pyrazolo [3,4-h]isoquinoline] had an IC50 of more than 1000 nM. Compound `CC(C)C[C@H]1[C@H](c2c(F)cc(OC3CN(C=O)C3)cc2F)c2ccc3[nH]ncc3c2CN1C` [Example 30, 3-(3,5-difluoro-4-((6S, 7S)-7-isobutyl-8-methyl-6,7,8,9-tetrahydro-3H-pyrazolo [3,4-h]isoquinolin-6-yl)phenoxy) azetidin-1-aldehyde] registered an IC50 not above 1 nM. Consider `CCCN1CC(Oc2cc(F)c([C@@H]3c4ccc5[nH]ncc5c4CN(C)[C@H]3CC3CC3)c(F)c2)C1` [Example 21, (6S, 7S)-7-cyclopropylmethyl-6-(2,6-difluoro-4-((1-propylazetidin-3-yl)oxy)phenyl)-8-methyl-6,7,8,9-tetrahydro-3H-pyrazolo [3,4-h]isoquinoline], for which the concentration for half-maximal inhibition (IC50) was more than 1000 nM. In turn, `CCCCCN1CC(Oc2cc(F)c([C@@H]3c4ccc5[nH]ncc5c4CN(C)[C@H]3CC(C)C)c(F)c2)C1` [Example 19] displayed an IC50 of more than 1000 nM.

One may read the IC50 as the point on the concentration scale where inhibition reaches its midpoint. The low end stands for higher potency, the high end for lower potency.
